In PubChem BioAssay (NCI):
Values joined by “and” are separate entries in the source; they are usually repeats but may differ in a detail not shown here. Identical values can stand only once.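 Five concentrations, 48 hours, 96-well plates. The concentration for 50% growth inhibition is given as GI50. At the TGI there is no net growth.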

The compounds below were run on MDA-MB-468 breast (assay: NCI-60 cell line screen, 48 h).
For C=C(C)[C@@H]1CC[C@]2(COC(C)=O)CC[C@]3(C)[C@H](CC[C@@H]4[C@@]5(C)CCCN(C(C)=O)C(C)(C)[C@@H]5CC[C@]43C)[C@@H]12, the GI50 was 1.53 µM and the TGI was 3 µM. With CN(C)c1ccc(O)c2c1CC1CC3C(N(C)C)C(=O)C(C(N)=O)=C(O)C3(O)C(=O)C1=C2O (stereo not given) the GI50 was 11 µM and the TGI was 57.7 µM. C/C=C(/C(=C/C)c1ccc(O)cc1)c1ccc(O)cc1 gave a GI50 of 2 µM and a TGI of 6.85 µM. O=C(Nc1cccc(-n2cc(-c3ccncc3)c(-c3ccc(Cl)c(O)c3)n2)c1)Nc1cccc(C(F)(F)F)c1 gave a GI50 of 0.98 µM and a TGI of 7.83 µM. CN1CCN(Cc2ccc(NC(=O)c3cncc(C#Cc4cnc5ccc(OCC6(C)COC6)nn45)c3)cc2C(F)(F)F)CC1 showed a GI50 of 0.12 µM and a TGI of 0.36 µM. N=C1N(c2ccccc2)C(=S)C(=Nc2ccccc2)N1c1ccccc1 was tested, and the GI50 was 7.14 µM and the TGI was 20.8 µM. Cc1nn(-c2ccccc2)c(-n2ccnc2)c1/C=N/Nc1nc(-c2ccc(Cl)c(Cl)c2)cs1 showed a GI50 of 1.47 µM and a TGI of 7.92 µM. COC(=O)[C@@H]1CCCN1C(=O)[C@@H]1CCCN1C(=O)[C@H](Cc1ccccc1)NC(=S)Nc1cc(C(F)(F)F)cc(C(F)(F)F)c1 was tested, and the GI50 was 2.48 µM and the TGI was 9.62 µM. Work on COc1cc(-c2cc(/C=C3\C(=O)Nc4ccc(Cl)cc43)[nH]n2)cc(OC)c1OC yielded a GI50 of 5.23 µM and a TGI of 88.8 µM. C=C1C(=O)O[C@H]2[C@H]1CC/C(COC(=O)NCc1ccc(Cn3c(=O)sn(CCI)c3=O)cc1)=C\CC[C@@]1(C)O[C@@H]21 gave a GI50 of 1.25 µM and a TGI of 2.81 µM. For CCN(CC)CCCN1C(=O)c2c(c(C)c3c(oc4ccc(O)cc43)c2C)C1=O, the GI50 was 1.65 µM and the TGI was 3.72 µM. Work on Nc1nc2cc(-c3ccc4ncc(C(=O)N5CCOCC5)n4c3)ccc2o1 yielded a GI50 of 3.82 µM and a TGI of 45.5 µM. With CCNC(=O)N1CCc2cc(OC)c(OCCc3ccc(OC)nc3)cc2C1c1ccc(C)cc1C (stereo not given) the GI50 was 1.59 µM and the TGI was 7.58 µM. CCCCSSC(=S)N(CC)CC was tested, and the GI50 was 65.1 µM and the TGI was over 100 µM. Compound NS(=O)(=O)c1ccc(Nc2ncc(-c3ccccc3)o2)cc1 has a GI50 of over 25 µM and a TGI of over 25 µM. Compound COc1ccc(/C=C2\CS(=O)(=O)C/C(=C\c3ccc(OC)cc3)C2=O)cc1 has a GI50 of 1.59 µM and a TGI of 5.18 µM. With COC(=O)c1c2c(c(C)[n+]([O-])c1C)C(=O)C(NCc1cccc(Cl)c1)=CC2=O the GI50 was 0.896 µM and the TGI was 2.5 µM. Work on CN(CCO)C1CCN(c2ccc(Nc3ncc4c5ccnc(F)c5n(C5CCCC5)c4n3)nc2)CC1 yielded a GI50 of 15.4 µM and a TGI of 33.2 µM. In the case of C=C1C(=O)O[C@H]2[C@H]1CC/C(COC(=O)NCc1[nH]nc3ccccc13)=C\CC[C@@]1(C)O[C@@H]21, the GI50 was 0.736 µM and the TGI was 2.72 µM. O=C(C(Br)C(Br)c1ccccc1)C(Br)C(Br)c1ccccc1 (stereo not given) showed a GI50 of 1.04 µM and a TGI of 3.09 µM. Cc1ccc(NS(=O)(=O)c2ccc(-c3cnc(C4CC4)o3)cc2)cc1C gave a GI50 of 0.231 µM and a TGI of 2.33 µM. Compound C=CCOC1=CC(=O)c2ccccc2C1=O has a GI50 of 2.08 µM and a TGI of 5.14 µM. Compound COc1ccc(CN2CCc3c(Sc4ccccc4)nc(N)nc3C2=O)c(OC)c1 has a GI50 of 3.51 µM and a TGI of 14 µM. In the case of NS(=O)(=O)N(c1cc(C(F)(F)F)cc(C(F)(F)F)c1)C1CCN(Cc2ccc(C(F)(F)F)cc2)CC1, the GI50 was 5.65 µM and the TGI was 12 µM. Compound O=C1c2ccc3c4c(ccc(c24)C(=O)N1CCCNCc1ccccc1F)C(=O)N(CCCNCc1ccccc1F)C3=O has a GI50 of 0.143 µM and a TGI of 0.29 µM. CCN(CCCNC(=O)Cc1cc(=O)oc2cc(N(C)C)ccc12)CCNc1ccnc2cc(Cl)ccc12 showed a GI50 of 1.96 µM and a TGI of 6 µM. For CCCCCCCCCCCCCCCCNC(=O)OC(C)C, the GI50 was 4.01 µM and the TGI was 10.1 µM. With O=NNc1ccc(S(=O)c2ccccc2)cn1 (stereo not given) the GI50 was 76.2 µM and the TGI was over 100 µM. In the case of COc1ccc(-c2cnoc2-c2ccc(OC)cc2O)cc1, the GI50 was 0.844 µM and the TGI was 5.46 µM. In the case of COc1ccc(-c2cc3c(OC)c(OC)c(OC)cc3oc2=O)cc1, the GI50 was 2.21 µM and the TGI was 8.46 µM. In the case of Nc1[nH]c(=O)nc2c1cnn2Cc1ccccc1, the GI50 was over 100 µM and the TGI was over 100 µM. With CCC(CC)COC(=O)[C@H](C)N[P@](=O)(OC[C@H]1O[C@@](C#N)(c2ccc3c(N)ncnn23)[C@H](O)[C@@H]1O)Oc1ccccc1 the GI50 was 0.491 µM and the TGI was 3.83 µM. For CO[C@@H](C(=O)N1Cc2[nH]nc(NC(=O)c3ccc(N4CCN(C)CC4)cc3)c2C1)c1ccccc1, the GI50 was 0.585 µM and 0.13 µM and the TGI was 5.28 µM and > 10 µM. In the case of CCC(/C=C(C)/C=C/C(=O)c1c(O)c(-c2ccc(O)cc2)c[nH]c1=O)CO (stereo not given), the GI50 was 5.24 µM and the TGI was 24.4 µM. Cc1nnc([S-])o1.[Au+].c1ccc([PH+](c2ccccc2)c2ccccc2)cc1 was tested, and the GI50 was 1.38 µM and the TGI was 2.8 µM. CN1CCN(Cc2ccc(NC(=O)c3cnc(F)c(C#Cc4cnc(N)c5ncccc45)c3)cc2C(F)(F)F)CC1 showed a GI50 of 0.386 µM and a TGI of 7.68 µM. In the case of CC(C)(Oc1ccc(Cl)cc1)C(=O)NC1C2CC3CC1CC(NS(C)(=O)=O)(C3)C2 (stereo not given), the GI50 was over 100 µM and the TGI was over 100 µM. CCCCN(CCCC)CC(O)c1ccc(OCc2ccccc2)c2ccccc12 (stereo not given) gave a GI50 of 2.17 µM and a TGI of 6 µM. For CC(C)(C)CC(C)(C)c1ccc(OCCSC(=N)N)cc1, the GI50 was 0.358 µM and the TGI was 1.9 µM. With CCCCC/C=C/C(=O)CCc1ccc(O)c(OC)c1 the GI50 was 3.18 µM and the TGI was 13 µM. COC(=O)c1cc2cc(-c3ccc(OC)cc3)cnc2[nH]1 showed a GI50 of 0.744 µM. Compound CCSc1ccc2c(c1)N(CCCN1CCN(C)CC1)c1ccccc1S2 has a GI50 of 1.73 µM and a TGI of 3.38 µM. With Oc1ccc(/C=C/c2ccc(O)cc2)cc1 the GI50 was 10.7 µM and the TGI was over 100 µM. Compound COc1cccc(-n2ncc3c(N/N=C/c4ccc(F)cc4)ncnc32)c1 has a GI50 of over 25 µM and a TGI of over 25 µM. With O=[N+]([O-])c1cc([N+](=O)[O-])c(N2CCCC2)cc1NN=C(c1ccc(O)cc1)c1ccc(O)cc1 the GI50 was 2.18 µM and the TGI was 10.1 µM. In the case of O=c1ccc(N=Nc2ccccc2)ccc1Cl, the GI50 was 2.46 µM and the TGI was 10.8 µM. CSc1nn2c(-c3ccc4ccccc4c3)ccnc2c1C#N gave a GI50 of 2.87 µM and a TGI of 18.3 µM. Work on CNC1CCc2c(sc(NC(=O)c3ccc(C(C)(C)C)cc3)c2C(N)=O)C1 (stereo not given) yielded a GI50 of 1.84 µM and a TGI of 3.58 µM. With Cn1cc(C2=C(c3cn(C)c4cc(C(=O)O)ccc34)C(=O)NC2=O)c2ccccc21 the GI50 was over 25 µM and the TGI was over 25 µM. With CN1CCN(Cc2ccc(NC(=O)c3nc4ccc5[nH]ncc5c4c4c3CCCC4)cc2C(F)(F)F)CC1 the GI50 was 0.797 µM and the TGI was 1.6 µM. Cc1ccc2c(NCCCN(C)C)c3c(C)nn(C)c3nc2c1 gave a GI50 of 2.71 µM and a TGI of 10.2 µM. COc1cc(-c2cncn2-c2ccc(-c3nc4ccc(F)cc4s3)cc2)ccc1F was tested, and the GI50 was 11.1 µM and the TGI was over 100 µM. In the case of CCOC(=O)c1ccc(NC(=O)Nc2nccs2)cc1, the GI50 was 0.0467 µM and the TGI was over 100 µM.
